Data taken from patent US20100256332A1, “GLP-1 Fusion Peptides, Their Production and Use” (BIOCOMPATIBLES UK LTD, priority 2007, published 2010).
Where no end group is shown, it is not given here.

How the values were obtained:
[1] = system: type II diabetic mice (C57BUKs-Lepr db/db); test: In vivo bioactivity in type II diabetic mice; design: species or system mouse; settings: 5 μg peptide s.c. twice a day, Day 2, 4, 7, 10, overnight fasted
Description: 11-week-old type II diabetic mice (C57BUKs-Lepr^db/db, Harlan) were treated with 5 μg peptide by subcutaneous injection twice a day at 9 a.m. and 5 p.m. (n=5 per group).
Blood glucose was measured before (day 0) and after treatment with GLP^CM peptides (Day 2, 4, 7, 10) at 10 a.m. after an overnight fastening period. Data were presented in relation to blood glucose levels measured at day 0.
Best results were obtained with recombinant SEQ ID No.:6 (CM1) and synthetic SEQ ID No.:8 (CM3). In FIG. 5 (y-axis) the relative effect of the treatment is shown. Blood glucose at day=0 was set to 1. Untreated animals undergo continuous increase in blood glucose level over time, whereas animals treated with inventive peptides display grosso modo a continuous decrease of the blood glucose level over time.

[2] = system: diabetic C57BL/KsJ@Rj-db (db/db) mice; test: Dose-efficacy study in diabetic mice; type: in vivo, mouse; settings: for fall in plasma glucose @1 h: 1 hour after single s.c. injection of 1.1-3.0 nmol peptide; for fall in plasma glucose @1 h / fall in plasma glucose @4 h: versus control; for fall in plasma glucose @4 h: 4 hours after single s.c. injection of 1.1-3.0 nmol peptide; for plasma glucose ED50: single s.c. dose, percentage decrease of blood glucose at 1h
Description: A sixth group was treated with saline only. 7 animals were treated per group. Blood glucose was determined from tail bleeds directly before, 1 hour and 4 hours after injection.
The results are shown in dose-response curves according to FIG. 8 (FIG. 8A (GLP-1), FIG. 8B (CM1), FIG. 8C(CM3) and FIG. 8D (CM3-ANA01)). For every test substance a graph was prepared with the percentage difference of the blood glucose in relation to the start value for the different concentrations. […] Both models are sigmoidal fit models suitable for dose response evaluation. For every peptide the plasma glucose ED50 values (single s.c. dose in μg/mouse) have been determined from the percentage decrease of blood glucose.
The fall in plasma glucose and the corresponding significance levels are given for the time period 1 hour (@1 h) and 4 hours (@4h) after peptide injection. Differences have been observed in the long-term efficacy of the peptides.

[3] = system: C57BL/KsJ@Rj-db (db/db) mice; test: Long-term treatment of db/db mice; type: in vivo, mouse; settings: for non fasted blood glucose level 1h after s.c. peptide injection, compared to control: tail bleed 1 hour after injection; for fasted blood glucose level 18h after peptide injection: 12-hour overnight fast, 18 hours after s.c. injection; for food consumption: weekly, 122 day treatment period, compared to the control
Description: The regimen was continued for 18 weeks. From week 12 to 18 treatment was done twice a day in 6 of 12 animals per group. Various parameters of the mice were investigated, i.e. health status (1), body weight (2), food consumption (3), blood glucose (4), glucose tolerance test (5), insulin data (6), glycosylated hemoglobin (7), pathology (8), and restimulation of T cells (9). • Health status (1) was good in all groups, no side effects of the treatment have been seen. • Body weight (2) was lower in all treated groups after 18 weeks of treatment (FIG. 9). […] The relative body weight increase of 12 animals per group after a treatment of 122 days is plotted. […] Non-fasted blood glucose level (1 hour after peptide injection) is shown in FIG. 11A, i.e. the effect of a treatment with saline (A), CM1 (B), CM3-ANA01 (C) or exendin (D) on the non-fasted blood glucose levels. Blood glucose was measured from a tail bleed 1 hour after s.c. injection of saline (A) or the peptides CM1 (B), CM3-ANA01 (C) or exendin (D) in a concentration of 24 nmol/kg. Compared to control non fasted blood glucose level 1h after s.c. peptide injection is reduced to 55% in group B, 51% in group C and 60% in group D (FIG. 11B). The blood glucose decrease in the treated groups treated groups is highly significant (p<0.0001). Fasted blood glucose level (18 hours after peptide injection) are shown in FIG. 11C, i.e. the effect of a treatment with saline (A), CM1 (B), CM3-ANA01 (C) or exendin (D) on the fasted blood glucose levels. Blood glucose was measured from a tail bleed after a 12-hour overnight fast 18 hours after s.c. injection of the test substances. Fasted blood glucose level 18h after peptide injection is reduced in the CM1 and CM3-ANA01 group. • An i.p. glucose tolerance test (5) (IPGTT) was conducted after 8 weeks of treatment on mice of the groups A-D. […] Blood glucose has been further on determined 15, 30, 45, 60, 90 and 120 minutes after glucose injection. A significant normalization of glucose tolerance was shown in all treated groups (FIG. 12A). In FIG. 12A absolute blood glucose levels during an i.p. glucose tolerance test (IPGTT) after 8 weeks of treatment with saline (A), CM1 (B), CM3-ANA01 (C) or exendin (D) is shown (mean values of each group (n=12)). • Another presentation of the data presented by FIG. 12A of the blood glucose tolerance test is given in FIG. 12B. Relative blood glucose levels during an i.p. glucose tolerance test (IPGTT) after 8 weeks of treatment with saline (A), CM1 (B), CM3-ANA01 (C) or exendin (D) normalized on the starting blood glucose level (100%). • Insulin levels (6) were determined from mice after a 12 hour overnight fastening period. […] Directly after sampling blood samples have been treated with a protease inhibitor cocktail to avoid insulin degradation. The serum was analysed for insulin with the Insulin Mouse Ultrasensitive ELISA (Cat.# EIA-3440, DRG). Significance has been determine with Student's t-test. • Glycosylated hemoglobin (7) is formed by excess plasma glucose binding to hemoglobin in red blood cells (RBC). Since RBCs have a 120-day lifespan, measurements of the glycolylated hemoglobin gives a longer-term indication of glucose control and is seen as a better indicator than plasma glucose levels. Whole blood was collected from the retro-orbital sinus and analyzed with the Enzymatic HbA1c Test Kit (#DZ121A, Diazyme) to determine the glycosylated hemoglobin levels. […] The mean value of all animals per group (n=12) is given. […] Therefore, the spleen of 8 animals per group was explanted, T-cells isolated and restimulated with different concentrations of the corresponding test substance. Compared to non-treated controls no significant increase in peptide restimulated T-cell proliferation was found. […] The stimulation index (SI) was calculated as the quotient of the response in the presence of the respective peptide and the response in the absence of peptides. […]

[4] = system: BALB/c mice; test: Immunogenicity study in BALB/c mice
Description: The trial was done in BALB/c mice receiving 5 repeated injections (70 μg peptide/dose, i.v.) over 22d (n=5).
Spleens of the treated and control mice were explanted, T-cells isolated and stimulated with increasing amounts of antigene. Proliferative recall response is measured.

[5] = In vitro human plasma stability of GLP-1 CM peptides; settings: 20 ng/ml peptide, 37° C., 3 hours, GLP-1 (Active) ELISA, versus native GLP-1(7-37)
Description: Dipeptidylpeptidase activity of the plasma was inhibited by an DPP-IV inhibitor (#DPP4, Biotrend).

[6] = human, 1 μM, pH 7.8
Description: (§1) Results are from triplicates in at least two independent experiments.

[7] = In vitro plasma stability, kinetic test method; settings: 1 μM peptide, 10% human plasma, 37° C., 0-9 hours
Description: as §1

[8] = 5 repeated injections, 70 μg peptide/dose, i.v., over 22d, BALB/c mice

Substance | anti-hyperglycemia effect (blood glucose in relation to day 0) ([1]; listed as SEQ ID No.:6) | anti-hyperglycemia effect (blood glucose in relation to day 0) ([1]; listed as recombinant SEQ ID No.:6) | fall in plasma glucose @1 h [2] | fall in plasma glucose @4 h [2] | plasma glucose ED50 [2] | non fasted blood glucose level 1h after s.c. peptide injection, compared to control ([3]; 24 nmol/kg s.c.) | fasted blood glucose level 18h after peptide injection [3] | food consumption ([3]; p<0.001) | T-cell antibody response and antibody titer [4, 8] | toxicity [4, 8] | clinically relevant immunogenicity ([4]; immunogenicity study in mice) | stability in human plasma in vitro (active GLP) [5] | relative body weight increase ([3]; after a treatment of 122 days, 24 nmol/kg s.c., p<0.001) | active GLP-1 left after 9h plasma exposure, % of the 0 h value [6] | in vitro plasma stability, comparison in words [7]
GLP-1 (7-37)-IP2-RR-GLP1(7-37) [CM1] | anti-hyperglycemia effect | Best results | 50% ± 14% @1 h | 0% @4 h | 0.61 μg/mouse | 55% | reduced | significantly lower | minimal | no toxicity | absence of any clinically relevant immunogenicity | significantly stabilized |  |  | 
HAEGTFTSDVSSYLEGQAAKEFIAWLVKGRGAADFPEEVAIAEELG [CM3-ANA01] |  |  | 62% ± 12% @1 h | 18% ± 11% @4 h | 0.55 μg/mouse | 51% | reduced | significantly lower |  |  |  |  | significantly lower | 84% | higher plasma stability than CM3
HAEGTFTSDVSSYLEGQAAKEFIAWLVKGRGRRDFPEEVAIAEELG [CM3, GLP-1(7-37)-IP2] |  |  |  |  |  |  |  |  |  |  |  | significantly stabilized |  |  | 
